Test results: US5925571A, “Method of testing immune competency” (Oxi-Gene, Inc., priority 1997, dated 1999)

What was measured:
[1] = system: ADPRT (ADP-ribosylation) in HML; experiment: HML + neutrophil co-culture exposed to PMA: HML ADP-ribosylation versus HOCl production; type: cell-based, human; conditions: 1×10^6 HML with 0 to 4×10^6 neutrophils, PMA 25 ng/ml, 30 min at 37° C.; FIG. 1
Protocol: HOCl measurement.--Mixed cultures of HML+ neutrophils were assayed for the production of HOCl in the extracellular conditioned medium by removal of the cells by centrifugation following the incubation period, and immediately trapping the produced HOCl with taurine (20 mM). Taurine chloramine was then quantified spectrophotometrically by using the conversion of I^- to I2 (E=2.29×10^4 M^-1 cm^-1). Details of this procedure have been described by Weiss et al (J. Clin. Invest. 70:598-607, 1982).
(§1) ADPRT assay.--The procedure was adapted from the permeabilized cell technique of Berger (Methods Cell Biol. 20:325-340, 1988) with modifications as previously described (Pero et al, Carcinogenesis 10:1657-64, 1989). Duplicate samples of 1×10^6 HML in the presence of 0 to 4×10^6 neutrophils were cultured in 1 ml of KRPG buffer for 30 min at 37° C. in the presence of PMA (phorbol-12-myristate-13-acetate, 25 ng/ml). After this co-incubation, the HML+ neutrophil mixtures were harvested by centrifugation, permeabilized, and ADPRT activity determined by radiometric procedure as described in detail elsewhere (Pero et al, Carcinogenesis 10:1657-64, 1989). […]
This Example establishes that human phagocytes (i.e. neutrophils) produce physiologic relevant concentrations of endogenous ADPRT inhibitors. […] The respiratory burst induced by PMA exposure of neutrophils was monitored by HOCl production. […]

[2] = system: ADPRT (adenosine diphosphate ribosyl transferase) in HML; experiment: PMA induced ADPRT activity in HML treated with HOCl or chloramine T (permeabilized cell radiometric assay); type: cell-based, human; conditions: doses of 80 μM; 30 min at 37° C., then PMA 25 ng/ml for 30 min; versus zero-dose control; FIG. 2
Protocol: as §1
The effect of various dosage levels of chloramine T and HOCl on PMA induced ADPRT activity in HML was investigated utilizing the procedures described above for such tests, measuring the PMA induced ADPRT activity for HML subjected to the various dosages, and comparing the values obtained with measured control values of PMA induced ADPRT activity in HML from the same source but with zero dosages of chloramine T and HOCl.

Row | Structure (SMILES) | produced concentration sufficient to cause inhibition of HML ADP-ribosylation [1] | inhibition of HML ADPRT activity [2] [%]
1 | Cc1ccc(S(=O)(=O)[N-]Cl)cc1.[Na+] [N-chloramine, chloramine T] | about 80 μM | > 80
2 | OCl [HOCl] | about 80 μM | > 80
